{"source": "patent US20240075087A1", "about": "“COMPOSITIONS AND METHODS COMPRISING HEMP EXTRACT FOR THE TREATMENT OF ANIMALS IN NEED” (Portland Technology Holdings LLC, priority 2021, published 2024)", "key": {"[1]": {"experiment": "Single-dose oral pharmacokinetics of CBD in healthy cats", "type": "in vivo", "details": "serum, single oral dose 2 mg/kg total CBD/CBDA", "procedure": "The single-dose oral pharmacokinetics of CBD and an assessment of safety and adverse effects during 12-week administration using a hemp-based product in healthy dogs and cats were determined in this study. […] More details about this study can be found in “Deabold, K. A.; Schwark, W. S.; Wolf, L.; Wakshlag, J. J., Single Dose Pharmacokinetics and Preliminary Safety Assessment with Use of CBD-Rich Hemp Nutraceutical in Healthy Dogs and Cats, Animals 2019, 9, 832, DOI 10.3390/ani9100832,” which is incorporated herein by reference in its entirety."}, "[2]": {"test_system": "canine primary dermal fibroblasts (CDF)", "experiment": "Trypan blue exclusion assay, dermal fibroblasts", "type": "cell-based", "details": "48 hours, vehicle control 16±3%", "procedure": "The trypan blue exclusion assay is performed on canine primary dermal fibroblasts (CDF) because of the slow rate of proliferation and low metabolic activity of these normal canine cells, precluding productive MTT assays. The effects of CBD treatments are compared with the results obtained on the 17-71, CMT12 and D17 cell lines for comparative purposes. For the CDF cells, applied cell extracellular matrix (ABM) is applied overnight to 24-well tissue culture-treated plates (Applied Biological Materials [ABM], Richmond, BC, Canada). For all cell lines, cells are plated at a density of 5×10^3 cells per well and incubated until 60% confluent before treatment with methanol vehicle control, 3.75, 7.5, and 15 μg/mL of CBD to cells for 48 hours. Cells are then trypsinized, collected and centrifuged at 1900 g for 10 minutes. With the exception of the 17-71 cell line, cells are detached with Accumax (Invitrogen, Carlsbad, California). The cell pellet is resuspended in 0.1% trypan blue (Sigma Aldrich, St Louis, Missouri) in PBS solution, loaded on a Cell Countess disposable cell counting slide with automatic counting of all positively stained cells in the Countess II Cell Counter under identical settings for each cell line (Invitrogen; ThermoFisher Scientific, Carlsbad, California) using the same parameters for each cell line. All treatments are performed in triplicate and the percent of viable cells are averaged."}, "[3]": {"test_system": "17-71, CMT12 and D17 cell lines", "experiment": "Time course Western blot of signalling pathways, autophagy and caspase 3", "type": "cell-based, canine", "procedure": "Cells are plated on 100 mm tissue culture-treated plates and incubated overnight in complete medium until 60% confluency is reached. […] Cells are harvested and lysed at each time point for control and CBD treated cells using mammalian lysis buffer (25 mM Tris, 100 mM NaCl, 1 mM EDTA, 1% Triton X-100, pH 7.4), and then centrifuged for 5 minutes at 12 000 g at 4° C. The supernatant is collected and the protein concentration is determined using the Bradford assay (Coomassie-dye; ThermoFisher Scientific Pierce, Waltham, Massachusetts). […] Membranes are incubated overnight in primary antibody solutions at a dilution of 1:1000 in TBST on a rocking platform at 4° C. Primary antibodies confirmed as cross reactive with canine cells or tissues include mouse extracellular regulated kinase (ERK) (R&D Biosciences, Boston, Massachusetts); rabbit anti-protein kinase B (AKT), Ser473 phosphorylated-AKT, stress-activated protein kinase/jun-amino-terminal kinase (SAPK/JNK), Thr183/Tyr185 phosphorylated-SAPK/JNK, mammalian target of rapamycin (mTOR), Ser2448 phosphorylated-mTOR, anti-Thr202/Tyr204 phosphorylated p44/42 MAPK (ERK1/2), anti-p38, anti-phosphorylated p38, anti-p62 and anti-LC3 A/B (Cell Signalling Technology, Danvers, Massachusetts)(e.g., Syrjä P, Anwar T, Jokinen T, Kyöstilä K, Jäderlund K H, Cozzi F, Rohdin C, Hahn K, Wohlsein P, Baumgärtner W, Henke D, Oevermann A, Sukura A, Leeb T, Lohi H, and Eskelinen E L, Basal Autophagy Is Altered in Lagotto Romagnolo Dogs with an ATG4D Mutation, Vet Pathol, 2017 November, 54(6), pp. 953-963, doi: 10.1177/0300985817712793; Gordon I K, Ye F, and Kent M, Evaluation of the mammalian target of rapamycin pathway and the effect of rapamycin on target expression and cellular proliferation in osteosarcoma cells from dogs, Amer J Vet Res, 2008, 69, pp. 1079-1084; Ikari A, Atomi K, Kinjo Y, and Sugatani J, Magnesium deprivation inhibits a MEK-ERK cascade and cell proliferation in epithelial Madin-Darby canine kidney cells, Life Sci, 2010, 86, pp. 766-773; and Levine C B, Bayle J, Biourge V, and Wakshlag J J, Effects and synergy of feed ingredients on canine neoplastic cell proliferation, BMC Vet Res, 2016, 12(1), 159, which are incorporated herein by reference in their entirety). Membranes are washed three times with TBST and incubated at room temperature for 1 hour in the corresponding secondary anti-rabbit IgG or anti-mouse IgG horseradish peroxidase-conjugated antibody at a dilution of 1:2000 (Cell Signalling Technology, Danvers, MA). Membranes are washed three times with TBST and visualized with a chemi-luminescent reagent (Clarity Western ECL Substrate; Bio-Rad, Hercules, California). Digital images are captured using an imaging system (Biospectrum 410; UVP, Upland, California or FluorChem E; Cell Biosciences, San Jose, California). Each blot is performed twice from two different experiments to confirm findings."}}}
{"smiles": "C=C(C)[C@@H]1CCC(C)=C[C@H]1c1c(O)cc(CCCCC)cc1O", "note": "[CBD, cannabidiol]", "values": [{"measurement": "AUC", "setting": "[1]; read-out: area under the curve (AUC)", "result": 164, "unit": "ng·h/mL"}, {"measurement": "Cmax", "setting": "[1]; read-out: mean maximum CBD concentration (Cmax)", "result": 43, "unit": "ng/mL"}, {"measurement": "Tmax", "setting": "[1]; read-out: time to maximal concentration (Tmax)", "result": 2, "unit": "h"}, {"measurement": "percent trypan blue positive cells", "setting": "[2]; 3.75 μg/mL CBD", "result": "32±5", "unit": "%"}, {"measurement": "percent trypan blue positive cells", "setting": "[2]; 7.5 μg/mL CBD", "result": "58±7", "unit": "%"}, {"measurement": "percent trypan blue positive cells", "setting": "[2]; 15 μg/mL CBD", "result": "77±12", "unit": "%"}, {"measurement": "caspase 3 activation", "setting": "[3]; 10 μg/mL CBD, 2, 4, 8 hours", "result": "activation of caspase 3 which can also be seen at 2 hours in the 17-71 cells, but is not evident until hour 8 in the CMT12 and D17 CBD treated cells"}, {"measurement": "AKT, phosphorylated-AKT, mTOR and phosphorylated-mTOR immunoblots", "setting": "[3]; 10 μg/mL CBD, 2, 4 and 8 hours", "result": "no depression or increased intensity of the signal over time"}, {"measurement": "LC3II proportion of LC3 protein", "setting": "[3]; 10 μg/mL CBD, 2 to 8 hours, all three cell lines", "result": "increase in the LC3II proportion of LC3 protein"}, {"measurement": "ERK and JNK phosphorylation", "setting": "[3]; 10 μg/mL CBD, 8 hour time-course vs methanol vehicle", "result": "repeatable increases in both ERK and JNK phosphorylation across all three cell lines"}, {"measurement": "autophagy cargo carrier protein p62 (western blotting)", "setting": "[3]; 10 μg/mL CBD, over 8 hours", "result": "marked decrease"}, {"measurement": "p38 phosphorylation and activation", "setting": "[3]; CBD treatment", "result": "minimal influence on the p38 phosphorylation and activation"}, {"measurement": "cleaved caspase 3 (17 Kda) immunoblotting", "setting": "[3]; after 8 and 16 hours of CBD treatment vs methanol vehicle control", "result": "cleaved caspase across all cell lines at both time points"}]}
